Laboratory results: US20120258929A1, “AGENT THAT MODULATES PHYSIOLOGICAL CONDITION OF PESTS, INVOLVED IN INSECT PEPTIDYL-DIPEPTIDASE A ACTIVITY” (SUMITOMO CHEMICAL COMPANY, LIMITED, priority 2005, published 2012)

Columns and labels:
Aphis gossypil = assay: Pesticidal activity test, artificial feed rearing, surviving aphids after six days; format: in vivo
Protocol: A sterilized artificial feed having the following composition (Table 3) was prepared. […] Controlling value (%)={1−(Cb×Tai)/(Cai×Tb)}×100 Letters in the equation represent the following meanings.

[1] = molecular target: aphid peptidyl-dipeptidase A (Aphis gossypii, UniProt A0A2K9Y4D7); assay: Inhibition of aphid peptidyl-dipeptidase A activity, in vitro, substrate Abz-Gly-p-nitro-Phe-Pro-OH; format: biochemical, cotton aphid (Aphis gossypii); details: for Activity of inhibiting peptidyl-dipeptidase A activity (inhibition degree (%) at 10 μM addition) / inhibition at 10 µM: test compound in DMSO, final concentration 10 μM, relative to DMSO control; for inhibition at 10 µM: read-out: Activity of inhibiting peptidyl-dipeptidase A activity (inhibition degree (%) at 10 μM addition); for IC50: concentrations 100 to 0.03 μM, calculated with XL fit, read-out: Activity of inhibiting peptidyl-dipeptidase A activity IC50, (μM))
Chain of aphid peptidyl-dipeptidase A (A0A2K9Y4D7 entry or part of it): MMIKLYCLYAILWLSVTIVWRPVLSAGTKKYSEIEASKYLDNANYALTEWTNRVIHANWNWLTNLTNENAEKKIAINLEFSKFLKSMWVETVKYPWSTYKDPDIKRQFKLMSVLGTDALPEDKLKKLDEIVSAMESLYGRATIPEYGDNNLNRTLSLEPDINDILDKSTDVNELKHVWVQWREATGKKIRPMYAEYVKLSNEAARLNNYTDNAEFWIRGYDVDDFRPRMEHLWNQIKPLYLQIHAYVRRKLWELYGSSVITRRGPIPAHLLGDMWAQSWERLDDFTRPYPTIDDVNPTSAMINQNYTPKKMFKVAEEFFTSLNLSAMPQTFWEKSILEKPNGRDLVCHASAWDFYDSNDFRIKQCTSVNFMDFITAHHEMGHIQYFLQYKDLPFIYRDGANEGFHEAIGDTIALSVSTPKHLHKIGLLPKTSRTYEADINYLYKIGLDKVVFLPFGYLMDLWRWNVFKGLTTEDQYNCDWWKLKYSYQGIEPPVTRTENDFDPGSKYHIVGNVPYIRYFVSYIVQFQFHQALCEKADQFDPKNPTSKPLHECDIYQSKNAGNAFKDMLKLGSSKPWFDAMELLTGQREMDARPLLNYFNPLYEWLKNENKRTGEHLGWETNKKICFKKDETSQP
Protocol: Selection of a compound which modulates the activity of a peptidyl-dipeptidase A was performed in a system where the activity of a peptidyl-dipeptidase A which is modulated by adding a test compound to an in vitro reaction system using the aphid peptidyl-dipeptidase A prepared in Example 7 is measured and evaluated.
Measurement of the activity of the aphid peptidyl-dipeptidase A was performed according to a method using Abz-Gly-p-nitro-Phe-Pro-OH (manufactured by Bachem, M-1100) as a substrate, as described in the previously reported article (Carmel et al. (1979) Clinica Chimica Acta, 93, 215-220).
For measuring the activity, the activity of the aphid peptidyl-dipeptidase A was measured when a test compound dissolved in DMSO was contained to a final concentration of 10 μM. In addition, the activity of the aphid peptidyl-dipeptidase A was measured when DMSO was contained in place of a test compound. Then, a ratio (%) of a measured value of the activity of the aphid peptidyl-dipeptidase A when a test compound dissolved in DMSO was contained, relative to a measured value of the activity of aphid peptidyl-dipeptidase A when DMSO was contained in place of the test compound was calculated, and a value obtained by subtracting the calculated value from 100% was adopted as an inhibition degree (%).
The activity of aphid peptidyl-dipeptidase A was measured when a test compound dissolved in DMSO was contained to a final concentration of each concentration of 100 μM, 30 μM, 10 μM, 3 μM, 1 μM, 0.3 μM, 0.1 μM or 0.03 μM.

[2] = test compound dissolved in DMSO to a final concentration of 640 μM, added at 0.5% volume of artificial feed, significant controlling value (e.g. 30% or more) = pesticidal activity
[3] = test compound dissolved in DMSO to a final concentration of 50 ppm, otherwise as Example 9

| Molecule | Determination result of pesticidal activity (Aphis gossypil; [2]) | Activity of inhibiting peptidyl-dipeptidase A activity (inhibition degree (%) at 10 μM addition) [1] [%] | Determination result of pesticidal activity (Aphis gossypil; [3]) | inhibition at 10 µM [1] [%] | IC50 [1] [µM] | Determination result of pesticidal activity (Aphis gossypil; […], significant controlling value (e.g. 30% or more) = pesticidal activity) |
| --- | --- | --- | --- | --- | --- | --- |
| CCN(CC)CCO[C@H]1CC[C@@]2(C)C(=CC[C@@H]3[C@@H]2CC[C@]2(C)C(=O)CC[C@@H]32)C1 [3-beta-[2-(diethylamino)ethoxy]androst-5-en-17-one] | Presence of pesticidal activity | 17 |  |  |  |  |
| CC12CCC3c4ccc(O)cc4CCC3C1C/C(=C\c1ccc(OC(F)(F)F)cc1)C2=O (stereo not drawn) [DF15164] |  |  | Absence of pesticidal activity |  |  |  |
| COC(=O)C(Cc1ccccc1)NC(=O)Nc1n[nH]c(=S)s1 (stereo not drawn) [MMP-2/MMP-3 inhibitor I] | Presence of pesticidal activity |  |  | 79 |  |  |
| CCOC(=O)[C@H](CCc1ccccc1)N[C@H]1CCc2ccccc2N(CC(=O)O)C1=O [benazepril] | Presence of pesticidal activity |  | Presence of pesticidal activity | 41 | 15.9 |  |
| C[C@H](CS)C(=O)N1CCC[C@H]1C(=O)O [captopril] |  |  |  | 99 |  |  |
| CCOC(=O)[C@H](CCc1ccccc1)N[C@@H](C)C(=O)N1CCC[C@H]1C(=O)O [enalapril] | Presence of pesticidal activity |  |  | 98 |  |  |
| CCOC(=O)[C@H](CCc1ccccc1)N[C@@H](C)C(=O)N1[C@H](C(=O)O)C[C@@H]2CCC[C@@H]21 [ramipril] | Presence of pesticidal activity |  |  | 16 |  |  |
| quinapril |  | 15 | Presence of pesticidal activity |  | 35.8 | Presence of pesticidal activity |
